Measured values reported in the supplement of paper PMC4862054.

Experiments:
HDQ-P1 [1] = assay: normalised viability (% of control), CellTiter-Blue; higher = more viable cells (about 100 = DMSO control); details: 300 nM; incubation time: 72 h
Protocol: (§1)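 DSRT, CellTiter-Blue viability, 72 h incubation. Signal is normalised to DMSO and benzethonium chloride controls. Value is the normalised response at dose 6.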

MDA-MB-453 [2] = assay: as above; details: 300 nM; incubation time: 72 h
Protocol: as §1

DU-4475 = assay: normalised viability (% of control), CellTiter-Blue; higher = more viable cells (about 100 = DMSO control); details: incubation time: 72 h
In short: (§2)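 Breast cancer cell lines were treated for 72 h in 384-well format and measured by CellTiter-Blue fluorescence at 560/590 nm. Results were normalised per plate to vehicle (100) and a positive kill control (0). The entry is normalised viability at a single listed concentration of the series.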

Hs578T [3] = assay: as above; details: incubation time: 72 h
In short: as §2

HCC1599 = assay: as above; details: incubation time: 72 h
In short: as §2

HCC1143 = assay: as above; details: incubation time: 72 h
In short: as §2

CAL-148 = assay: as above; details: incubation time: 72 h
In short: as §2

MDA-MB-468 = assay: as above; details: incubation time: 72 h
In short: as §2

CAL-51 = assay: as above; details: incubation time: 72 h
In short: as §2

MDA-MB-231 = assay: as above; details: incubation time: 72 h
In short: as §2

HDQ-P1 [4] = assay: as above; details: incubation time: 72 h
In short: as §2

CAL-120 = assay: as above; details: incubation time: 72 h
In short: as §2

MDA-MB-436 [5] = assay: as above; details: incubation time: 72 h
In short: as §2

BT-549 = assay: as above; details: incubation time: 72 h
In short: as §2

MFM-223 = assay: as above; details: incubation time: 72 h
In short: as §2

MDA-MB-453 [6] = assay: as above; details: incubation time: 72 h
In short: as §2

HCC1937 [7] = assay: as above; details: incubation time: 72 h
In short: as §2

SK-BR-3 = assay: as above; details: incubation time: 72 h
In short: as §2

CAL-85-1 = assay: as above; details: incubation time: 72 h
In short: as §2

BT-474 = assay: as above; details: incubation time: 72 h
In short: as §2

Hs578T [8] = assay: drug sensitivity score (DSS), CellTiter-Blue viability (DSS (AUC-based score)); higher = stronger viability inhibition; extreme values may be limits of the assay; details: incubation time: 72 h
In short: (§3)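 Drug sensitivity scores correspond to the area under the fitted dose-response curve. Breast cancer cell lines were incubated 72 h with compound at 5 or 9 concentrations in 384-well plates. Viability, read as CellTiter-Blue fluorescence at 560/590 nm, was normalised per plate to 0.1 % DMSO and a positive kill control.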

MDA-MB-436 [9] = assay: as above; details: incubation time: 72 h
In short: as §3

HCC1937 [10] = assay: as above; details: incubation time: 72 h
In short: as §3

N#Cc1ccc(C(c2ccc(C#N)cc2)n2cncn2)cc1 [Letrozole]
Details | drug sensitivity score | normalised viability [%]
HCC1937 [10] | 1.74 | –
HDQ-P1 [1] | – | 69.4
Hs578T [8] | 0 | –
MDA-MB-436 [9] | 0 | –
MDA-MB-453 [2] | – | 100

normalised viability [%]
Details | 3 nM | 10 nM | 30 nM | 100 nM | 1000 nM | 10000 nM
BT-474 | – | 105 | – | – | 109 | 109
BT-549 | – | 83.5 | – | – | 84 | 90.5
CAL-51 | 115 | – | 107 | 103 | – | –
CAL-85-1 | 86.9 | – | 85 | 87.1 | – | –
CAL-120 | – | 72.4 | – | – | 86.6 | 80.2
CAL-148 | 93.8 | – | 93 | 94.8 | – | –
DU-4475 | 94.6 | – | 81.4 | 82 | – | –
HCC1143 | – | 85.4 | – | – | 90.7 | 78.4
HCC1599 | – | 81.2 | – | – | 70.7 | 81.9
HCC1937 [7] | – | 81.8 | – | – | 82.6 | 82
HDQ-P1 [4] | 90.8 | – | 79.5 | 84.5 | – | –
Hs578T [3] | – | 91.8 | – | – | 91 | 98.9
MDA-MB-231 | – | 86.3 | – | – | 87.8 | 95.5
MDA-MB-436 [5] | – | 113 | – | – | 96.1 | 105
MDA-MB-453 [6] | 105 | – | 76.8 | 93.1 | – | –
MDA-MB-468 | – | 101 | – | – | 115 | 92.7
MFM-223 | – | 58.8 | – | – | 70.5 | 49.2
SK-BR-3 | – | 79.4 | – | – | 103 | 85.2

Nc1nc(F)nc2c1ncn2[C@@H]1O[C@H](CO)[C@@H](O)[C@@H]1O [Fludarabine]
Details | drug sensitivity score | normalised viability [%]
HCC1937 [10] | 4.57 | –
HDQ-P1 [1] | – | 75.3
Hs578T [8] | 0 | –
MDA-MB-436 [9] | 0 | –
MDA-MB-453 [2] | – | 100

normalised viability [%]
Details | 3 nM | 10 nM | 30 nM | 100 nM | 1000 nM | 10000 nM
BT-474 | – | 94 | – | – | 97.4 | 103
BT-549 | – | 85.1 | – | – | 97.1 | 81.5
CAL-51 | 100 | – | 101 | 91.9 | – | –
CAL-85-1 | 88 | – | 87.2 | 92.8 | – | –
CAL-120 | – | 82.3 | – | – | 78.5 | 81.5
CAL-148 | 71 | – | 82.6 | 87.7 | – | –
DU-4475 | 91.1 | – | 93.2 | 96.7 | – | –
HCC1143 | – | 75.8 | – | – | 80 | 55.9
HCC1599 | – | 102 | – | – | 82.6 | 89.5
HCC1937 [7] | – | 97.5 | – | – | 84.8 | 54.5
HDQ-P1 [4] | 107 | – | 91 | 96.4 | – | –
Hs578T [3] | – | 112 | – | – | 99.2 | 87.2
MDA-MB-231 | – | 90.9 | – | – | 89.9 | 81.1
MDA-MB-436 [5] | – | 89 | – | – | 81.2 | 78.4
MDA-MB-453 [6] | 113 | – | 112 | 103 | – | –
MDA-MB-468 | – | 98.8 | – | – | 112 | 98.9
MFM-223 | – | 101 | – | – | 106 | 100
SK-BR-3 | – | 98.6 | – | – | 93.3 | 77.8

C1CN1c1nc(N2CC2)nc(N2CC2)n1 [Triethylenemelamine]
Details | drug sensitivity score | normalised viability [%]
HCC1937 [10] | 0 | –
HDQ-P1 [1] | – | 105
Hs578T [8] | 0 | –
MDA-MB-436 [9] | 0 | –
MDA-MB-453 [2] | – | 108

normalised viability [%]
Details | 3 nM | 10 nM | 30 nM | 100 nM | 1000 nM | 10000 nM
BT-474 | – | 111 | – | – | 126 | 130
BT-549 | – | 105 | – | – | 90.9 | 66.7
CAL-51 | 108 | – | 106 | 97.4 | – | –
CAL-85-1 | 104 | – | 87.6 | 108 | – | –
CAL-120 | – | 112 | – | – | 106 | 98.7
CAL-148 | 101 | – | 105 | 101 | – | –
DU-4475 | 102 | – | 102 | 102 | – | –
HCC1143 | – | 97.8 | – | – | 102 | 93.1
HCC1599 | – | 90.9 | – | – | 92.9 | 83.3
HCC1937 [7] | – | 86.2 | – | – | 72 | 75.3
HDQ-P1 [4] | 110 | – | 94.3 | 118 | – | –
Hs578T [3] | – | 145 | – | – | 117 | 110
MDA-MB-231 | – | 104 | – | – | 81.8 | 78.9
MDA-MB-436 [5] | – | 105 | – | – | 96.5 | 102
MDA-MB-453 [6] | 115 | – | 102 | 122 | – | –
MDA-MB-468 | – | 112 | – | – | 112 | 107
MFM-223 | – | 99.4 | – | – | 98.3 | 64.8
SK-BR-3 | – | 105 | – | – | 109 | 105

COc1cc([C@@H]2c3cc4c(cc3[C@@H](O[C@@H]3O[C@@H]5CO[C@@H](c6cccs6)O[C@H]5[C@H](O)[C@H]3O)[C@H]3COC(=O)[C@H]23)OCO4)cc(OC)c1O [Teniposide]
Details | drug sensitivity score | normalised viability [%]
HCC1937 [10] | 19.7 | –
HDQ-P1 [1] | – | 86.3
Hs578T [8] | 4.64 | –
MDA-MB-436 [9] | 10.3 | –
MDA-MB-453 [2] | – | 87.9

normalised viability [%]
Details | 3 nM | 10 nM | 30 nM | 100 nM | 1000 nM | 10000 nM
BT-474 | – | 118 | – | – | 113 | 50.8
BT-549 | – | 101 | – | – | 62.4 | 8.99
CAL-51 | 98.2 | – | 78.2 | 43.4 | – | –
CAL-85-1 | 103 | – | 89.7 | 94.5 | – | –
CAL-120 | – | 108 | – | – | 55.9 | 10.3
CAL-148 | 103 | – | 69.3 | 61 | – | –
DU-4475 | 82 | – | 67.8 | 28.1 | – | –
HCC1143 | – | 95.6 | – | – | 49.5 | 20.5
HCC1599 | – | 80.8 | – | – | 65.1 | 47.9
HCC1937 [7] | – | 82.3 | – | – | 21 | 18.8
HDQ-P1 [4] | 113 | – | 113 | 104 | – | –
Hs578T [3] | – | 109 | – | – | 94.5 | 12.2
MDA-MB-231 | – | 103 | – | – | 73.7 | 13.8
MDA-MB-436 [5] | – | 92.1 | – | – | 55.1 | 23.6
MDA-MB-453 [6] | 135 | – | 92.8 | 109 | – | –
MDA-MB-468 | – | 99.1 | – | – | 54.2 | 15.6
MFM-223 | – | 99.3 | – | – | 84.4 | 13.1
SK-BR-3 | – | 105 | – | – | 20.9 | 7.84
